From patent US20090111847A1, “PREPARATION METHOD AND USE OF COMPOUNDS HAVING HIGH INSECTICIDAL ACTIVITIES” (priority 2006, published 2009)

What was measured:
[1] = system: Nilaparvata lugens; assay: Insecticidal activity against Nilaparvata lugens by spraying (mortality after 24 hours); type: in vivo; conditions: for mortality at 500 ppm: Nilaparvata lugens, 24 h, read-out: Mortality (%) (500 ppm) Nilaparvata lugens; for Mortality (%) (500 ppm) Nilaparvata lugens: spraying 2 ml, counted after 24 hours
Protocol: Plant hopper, which belongs to Homoptera and has a piercing-sucking mouthpart, is a common insect for agricultural plant. Nilaparvata lugens was tested by the way of spraying.
Test method: the compound to be tested was exactly formulated into a solution having a certain concentration and clean water was used as a blank control. Each process was repeated for 3 tumblers (3 times). 2 ml of solution was sprayed uniformly to each tumbler by a mini manual sprayer. 10 Nilaparvata lugens were introduced to every sink 6 hours before spraying. Three series of experiments were conducted. The number of killed Nilaparvata lugens was counted after 24 hours to calculate the mortality.

[2] = system: Aphis craccivora; assay: Insecticidal activity against Aphis craccivora by immersing (mortality after 24 hours); type: in vivo; conditions: for mortality at 500 ppm: Aphis craccivora, 24 h, read-out: Mortality (%) (500 ppm) Aphis craccivora; for Mortality (%) (500 ppm) Aphis craccivora / Aphis craccivora LC50 (ppm) / Aphis craccivora Mortality (%) (100 ppm): in vivo
Protocol: Aphis, which belongs to Homoptera and has a piercing-sucking mouthpart, is a common insect for agricultural plant. Aphis craccivora was tested by the way of immersing.
Test method: exactly weighed various samples were independently added to N,N-dimethylformamide to form a 10 g/L stock solution. The mixture was diluted with 0.2 mL/L aqueous Triton X-100 solution to a concentration of 500 ug/mL. After stably sucking on bean sprout, the adult aphis without wings together with bean sprout was dipped into the dilution of 500 ug/mL, 100 ug/mL, 50 ug/mL, 25 ug/mL, 12.5 ug/mL, 6.25 ug/mL (LD50 was calculated), taken out after 5 seconds, and the excess dilution was sucked out with bibulous paper and the adult aphis without wings was incubated in clean vessel at a constant temperature of 23° C. Each concentration was repeated for 3 times and the control group contained 0.2 mL/L aqueous Triton X-100 solution. The number of killed aphis was counted after 24 hours to calculate the mortality.

Row | Structure (SMILES) | Mortality (%) (500 ppm) Nilaparvata lugens [1] | Mortality (%) (500 ppm) Aphis craccivora [2] | Aphis craccivora LC50 (ppm) [2] [ppm] | Aphis craccivora Mortality (%) (100 ppm) [2] | other results
1 | CC1CC(O)N2CCN(Cc3ccc(Cl)nc3)C2=C1[N+](=O)[O-] (stereo not shown) [Compound 1, 1-((6-chloropyridin-3-yl)methyl)-7-methyl-8-nitro-1,2,3,5,6,7-hexahydroimidazo[1,2-a]pyridin-5-ol] | – | – | – | – | mortality at 500 ppm [1]: 100%; mortality at 500 ppm [2]: 100%
2 | COC1CC(C)C([N+](=O)[O-])=C2N(Cc3ccc(Cl)nc3)CCN21 (stereo not shown) [Compound 2, 1-((6-chloropyridin-3-yl)methyl)-5-methoxy-7-methyl-8-nitro-1,2,3,5,6,7-hexahydroimidazo[1,2-a]pyridine] | – | – | – | – | mortality at 500 ppm [1]: 100%; mortality at 500 ppm [2]: 98%
3 | CCOC1CC(C)C([N+](=O)[O-])=C2N(Cc3ccc(Cl)nc3)CCN21 (stereo not shown) [Compound 3, 1-((6-chloropyridin-3-yl)methyl)-5-ethoxy-7-methyl-8-nitro-1,2,3,5,6,7-hexahydroimidazo[1,2-a]pyridine] | – | – | – | – | mortality at 500 ppm [1]: 100%; mortality at 500 ppm [2]: 100%
4 | CC1CC(OCC(F)(F)F)N2CCN(Cc3ccc(Cl)nc3)C2=C1[N+](=O)[O-] (stereo not shown) [Compound 4] | 100 | 100 | – | – | –
5 | CC(C)OC1CC(C)C([N+](=O)[O-])=C2N(Cc3ccc(Cl)nc3)CCN21 (stereo not shown) [Compound 6] | 100 | 100 | – | – | –
6 | CCCCOC1CC(C)C([N+](=O)[O-])=C2N(Cc3ccc(Cl)nc3)CCN21 (stereo not shown) [Compound 7, 5-butoxy-1-((6-chloropyridin-3-yl)methyl)-7-methyl-8-nitro-1,2,3,5,6,7-hexahydroimidazo[1,2-a]pyridine] | – | – | – | – | mortality at 500 ppm [1]: 100%; mortality at 500 ppm [2]: 80%
7 | CCCCCOC1CC(C)C([N+](=O)[O-])=C2N(Cc3ccc(Cl)nc3)CCN21 (stereo not shown) [Compound 8] | 80 | 67 | – | – | –
8 | C=CCOC1CC(C)C([N+](=O)[O-])=C2N(Cc3ccc(Cl)nc3)CCN21 (stereo not shown) [Compound 9] | 100 | 98 | – | – | –
9 | C#CCOC1CC(C)C([N+](=O)[O-])=C2N(Cc3ccc(Cl)nc3)CCN21 (stereo not shown) [Compound 10] | 67 | 43 | – | – | –
10 | CC(=O)OC1CC(C)C([N+](=O)[O-])=C2N(Cc3ccc(Cl)nc3)CCN21 (stereo not shown) [Compound 11, 1-((6-chloropyridin-3-yl)methyl)-7-methyl-8-nitro-1,2,3,5,6,7-hexahydroimidazo[1,2-a]pyridin-5-yl acetate] | – | – | – | – | mortality at 500 ppm [1]: 100%; mortality at 500 ppm [2]: 93%
11 | CC1CC(O)N2CCN(Cc3cnc(Cl)s3)C2=C1[N+](=O)[O-] (stereo not shown) [Compound 12, 1-((2-chlorothiazol-5-yl)methyl)-7-methyl-8-nitro-1,2,3,5,6,7-hexahydroimidazo[1,2-a]pyridin-5-ol] | – | – | – | – | mortality at 500 ppm [1]: 100%; mortality at 500 ppm [2]: 100%
12 | CCOC1CC(C)C([N+](=O)[O-])=C2N(Cc3cnc(Cl)s3)CCN21 (stereo not shown) [Compound 13] | 100 | 98 | – | – | –
13 | CCCOC1CC(C)C([N+](=O)[O-])=C2N(Cc3cnc(Cl)s3)CCN21 (stereo not shown) [Compound 14] | 100 | 100 | – | – | –
14 | CC1CC(O)N2CCN(CC3CCOC3)C2=C1[N+](=O)[O-] (stereo not shown) [Compound 15] | 35 | 24 | – | – | –
15 | COC1CC(C)C([N+](=O)[O-])=C2N(CC3CCOC3)CCN21 (stereo not shown) [Compound 16] | 67 | 45 | – | – | –
16 | CCOC1CC(C)C([N+](=O)[O-])=C2N(CC3CCOC3)CCN21 (stereo not shown) [Compound 17] | 100 | 89 | – | – | –
17 | CC1CC([N+](=O)[O-])=C2N(Cc3ccc(Cl)nc3)CCN2C1O (stereo not shown) [Compound 18, 1-((6-chloropyridin-3-yl)methyl)-6-methyl-8-nitro-1,2,3,5,6,7-hexahydroimidazo[1,2-a]pyridin-5-ol] | – | – | – | – | mortality at 500 ppm [1]: 100%; mortality at 500 ppm [2]: 98%
18 | CCOC1C(C)CC([N+](=O)[O-])=C2N(Cc3ccc(Cl)nc3)CCN21 (stereo not shown) [Compound 19] | 100 | 100 | – | – | –
19 | CCCOC1C(C)CC([N+](=O)[O-])=C2N(Cc3ccc(Cl)nc3)CCN21 (stereo not shown) [Compound 20] | 98 | 86 | – | – | –
20 | CC1CC([N+](=O)[O-])=C2N(Cc3cnc(Cl)s3)CCN2C1O (stereo not shown) [Compound 21] | 100 | 90 | – | – | –
21 | CCC1CC(O)N2CCN(Cc3ccc(Cl)nc3)C2=C1[N+](=O)[O-] (stereo not shown) [Compound 22] | 98 | 93 | – | – | –

Row | Structure (SMILES) | Mortality (%) (500 ppm) Nilaparvata lugens [1] | Mortality (%) (500 ppm) Aphis craccivora [2] | Aphis craccivora LC50 (ppm) [2] [ppm] | Aphis craccivora Mortality (%) (100 ppm) [2] | other results
22 | CCC1CC(OC(C)C)N2CCN(Cc3ccc(Cl)nc3)C2=C1[N+](=O)[O-] (stereo not shown) [Compound 23] | 95 | 65 | – | – | –
23 | CCCC1CC(O)N2CCN(Cc3ccc(Cl)nc3)C2=C1[N+](=O)[O-] (stereo not shown) [Compound 24] | 89 | 97 | – | – | –
24 | CCCC1CC(OCC)N2CCN(Cc3ccc(Cl)nc3)C2=C1[N+](=O)[O-] (stereo not shown) [Compound 25] | 100 | 96 | – | – | –
25 | CCC1CC([N+](=O)[O-])=C2N(Cc3ccc(Cl)nc3)CCN2C1O (stereo not shown) [Compound 26] | 100 | 100 | – | – | –
26 | CC1CC(O)N2CCN(Cc3ccc(Cl)nc3)C2=C1[N+](=O)[O-] (stereo not shown) [a] | – | – | 31.5 | 95.3 | –
27 | COC1CC(C)C([N+](=O)[O-])=C2N(Cc3ccc(Cl)nc3)CCN21 (stereo not shown) [b] | – | – | 50.8 | 84 | –
28 | CCOC1CC(C)C([N+](=O)[O-])=C2N(Cc3ccc(Cl)nc3)CCN21 (stereo not shown) [c] | – | – | 65.4 | 67 | –
29 | CCCOC1CC(C)C([N+](=O)[O-])=C2N(Cc3ccc(Cl)nc3)CCN21 (stereo not shown) [d] | – | – | 33.6 | 75.4 | –
30 | CC(C)OC1CC(C)C([N+](=O)[O-])=C2N(Cc3ccc(Cl)nc3)CCN21 (stereo not shown) [e] | – | – | 20.5 | 100 | –
31 | CC1CC(O)N2CCN(Cc3cnc(Cl)s3)C2=C1[N+](=O)[O-] (stereo not shown) [f] | – | – | 68 | 87 | –
32 | CC1CC([N+](=O)[O-])=C2N(Cc3ccc(Cl)nc3)CCN2C1O (stereo not shown) [g] | – | – | 36.3 | 92 | –
33 | CCCC1CC(O)N2CCN(Cc3ccc(Cl)nc3)C2=C1[N+](=O)[O-] (stereo not shown) [i] | – | – | 75.2 | 77 | –
34 | CCC1CC([N+](=O)[O-])=C2N(Cc3ccc(Cl)nc3)CCN2C1O (stereo not shown) [j] | – | – | 57.3 | 93.6 | –
35 | CCC1CC([N+](=O)[O-])=C2N(Cc3ccc(Cl)nc3)CCN2C1OC (stereo not shown) [k] | – | – | 83.0 | 92 | –
36 | CC1C([N+](=O)[O-])=C2N(Cc3ccc(Cl)nc3)CCN2C(O)C1C (stereo not shown) [l] | – | – | 86.4 | 66.7 | –
37 | CCC1C([N+](=O)[O-])=C2N(Cc3ccc(Cl)nc3)CCN2C(O)C1C (stereo not shown) [m] | – | – | 75.9 | 87 | –
38 | COC1CC(O)N2CCN(Cc3ccc(Cl)nc3)C2=C1[N+](=O)[O-] (stereo not shown) [n] | – | – | 40.5 | 96 | –
39 | CCOC1CC(O)N2CCN(Cc3ccc(Cl)nc3)C2=C1[N+](=O)[O-] (stereo not shown) [o] | – | – | 66.4 | 82 | –
40 | COC1CC([N+](=O)[O-])=C2N(Cc3ccc(Cl)nc3)CCN2C1O (stereo not shown) [p] | – | – | 47.6 | 93 | –
41 | CCOC1CC([N+](=O)[O-])=C2N(Cc3ccc(Cl)nc3)CCN2C1O (stereo not shown) [q] | – | – | 70.9 | 85 | –
